{
  "source": "patent US20230301939A1",
  "about": "“NOVEL FO[…]” (Neurocentrx Pharma Ltd., priority 2018, published 2023)",
  "origin": "cited, not measured here",
  "key": {"[1]": {"system": "mice"}, "[2]": {"molecular_target": "T1, a7 nicotinic acetylcholine receptor (Rattus norvegicus, UniProt Q05941)", "T1 construct": "expressed in transfected cells; host or cells: KXa7R1 cell line (HEK293)", "T1 sequence (Q05941 23-502)": "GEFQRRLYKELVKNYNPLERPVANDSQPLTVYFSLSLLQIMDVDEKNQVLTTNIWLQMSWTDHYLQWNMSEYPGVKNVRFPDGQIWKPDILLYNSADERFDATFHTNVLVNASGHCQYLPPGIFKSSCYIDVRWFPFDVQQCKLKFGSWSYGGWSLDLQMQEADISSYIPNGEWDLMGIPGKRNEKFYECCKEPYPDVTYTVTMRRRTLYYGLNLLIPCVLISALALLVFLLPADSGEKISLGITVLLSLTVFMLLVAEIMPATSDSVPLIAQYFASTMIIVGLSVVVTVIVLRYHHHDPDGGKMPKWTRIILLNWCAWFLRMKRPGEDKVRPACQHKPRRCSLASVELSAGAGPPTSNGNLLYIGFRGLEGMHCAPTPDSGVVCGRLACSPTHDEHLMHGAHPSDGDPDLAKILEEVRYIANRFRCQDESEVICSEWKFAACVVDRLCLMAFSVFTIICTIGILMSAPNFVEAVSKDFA", "details": "for Negative allosteric modulator activity in words: KXa7R1 cell line, ketamine at the same concentrations (<1 μM)"}, "[3]": {"details": "in vivo"}},
  "note": "Read-outs that look alike come from different tables or passages of the source.",
  "data": [
    {"smiles": "CN[C@@]1(c2ccccc2Cl)CCCCC1=O", "note": "[arketamine]", "values": [
      {"measurement": "Antidepressant(-like) effect", "setting": "[1]", "value": "greater and lasted longer than that of esketamine"}
    ]},
    {"smiles": "NC1(c2ccccc2Cl)CCCCC1=O", "note": "(centres unmarked) [norketamine]", "values": [
      {"measurement": "Negative allosteric modulator activity in words", "setting": "[2]", "value": "nanomolar potencies"},
      {"measurement": "Potency as an anesthetic relative to ketamine", "setting": "[3]", "value": "one-third to one-fifth as potent"},
      {"measurement": "Plasma levels relative to ketamine", "setting": "following oral administration of ketamine", "value": "three times higher"}
    ]},
    {"smiles": "NC1(c2ccccc2Cl)CCC=CC1=O", "note": "(centres unmarked) [dehydronorketamine]", "values": [
      {"measurement": "IC50", "setting": "[2]; KXa7R1 cell line (HEK293 cells transfected with rat nicotinic acetylcholine receptor genes)", "value": 55, "unit": "nM"},
      {"measurement": "Negative allosteric modulator activity in words", "setting": "[2]", "value": "nanomolar potencies"}
    ]},
    {"smiles": "NC1(c2ccccc2Cl)CCCC(O)C1=O", "note": "(centres unmarked) [hydroxynorketamine]", "values": [
      {"measurement": "Negative allosteric modulator activity in words", "setting": "[2]", "value": "nanomolar potencies"}
    ]},
    {"smiles": "N[C@@]1(c2ccccc2Cl)CCC[C@@H](O)C1=O", "note": "[(2R,6R)-HNK]", "values": [
      {"measurement": "Antidepressant(-like) effect", "setting": "[1]", "value": "ketamine-type antidepressant-like effects"}
    ]},
    {"smiles": "CNC1(c2ccccc2Cl)CCCCC1=O", "note": "(centres unmarked) [Ketamine, ketamine]", "values": [
      {"measurement": "Negative allosteric modulator activity in words", "setting": "[2]", "value": "inactive"},
      {"measurement": "Bioavailability", "setting": "intramuscularly", "value": 93, "unit": "%"},
      {"measurement": "Time to peak plasma concentrations", "setting": "intramuscularly", "value": "5 to 15", "unit": "min"},
      {"measurement": "Bioavailability", "setting": "intranasally", "value": "8-50%"},
      {"measurement": "Time to peak plasma concentrations", "setting": "intravenously", "value": "within a minute"},
      {"measurement": "Bioavailability", "setting": "oral route", "value": "17-20%"},
      {"measurement": "Duration of action in a clinical setting", "setting": "orally", "value": "4 to 6", "unit": "h"},
      {"measurement": "Time to peak plasma concentrations", "setting": "orally", "value": 30, "unit": "min"},
      {"measurement": "Bioavailability", "setting": "rectally", "value": 30, "unit": "%"}
    ]}
  ]
}
